The values below are quoted from earlier work in US5288707A, “Borolysine peptidomimetics” (Sandoz Ltd., priority 1990, dated 1994).

One data set concerns the target thrombin (Homo sapiens, UniProt P00734). Conditions: reversible and irreversible inhibitors, value given as a range of magnitude.
The conditions of data set [1]: in vivo.

For the molecule `NC(N)=NCCC[C@H](NC(=O)[C@@H]1CCCN1C(=O)[C@H](N)Cc1ccccc1)C(=O)CCl` [D-Phe-Pro-Arg-CH2 Cl], at thrombin, the inhibition in vitro is listed as ~10^-8 M.

Turning to `N=C(N)NCCC[C@@H](C=O)NC(=O)[C@@H]1CCCN1C(=O)[C@H](N)Cc1ccccc1` [D-Phe-Pro-Arginal], the inhibition in vitro at thrombin was ~10^-8 M. Besides, the LD50 value result in data set [1] is recorded as “quite a low”.
